Read-outs that look alike come from different tables or passages of the source.

The text below walks through data of US11236044B2, “Selective inhibitors of 12(S)-lipoxygenase (12-LOX) and methods for use of the same” (THE REGENTS OF THE UNIVERSITY OF MICHIGAN, priority 2018, dated 2022).

The nature of this data set: Pharmacokinetic study of the inhibitors in mice blood plasma (PO and IV). The format is in vivo. To be noted: for concentration at 2 h / concentration at 4 h / concentration at 7 h: mouse, plasma, 30 mg/kg. The protocol: Pharmacokinetic Study of the Inhibitors in Mice Blood Plasma
The blood plasma concentration of compounds A1, A2, and A4 in mice was determined following per os, oral compound administration (“PO”) and intravenous (“IV”) administration
Calibration curve. The concentration range was evaluated from 2.5-5000 ng/ml for compound A2, 1-5000 ng/ml for compound A4, and 5-5000 ng/ml for compound A1. The curve was built with linear regression with weighing (1/X2). The linear regression analysis was performed by plotting the peak area ratio (y) against the concentration (x) in ng/mL.
Instrument Conditions. The LC-MS and mass spectrometry conditions for the compounds tested are shown below.
Results. The individual and average compound A1, A2, and A4 concentration-time data for IV and PO dosed groups are listed in Table 1, and graphically presented in FIG. 1.

[1] abbreviates: iv, IV 30 mg/kg, 2 h, n=3 (outliers excluded), read-out: Concentration in Plasma, Mean.
Setting [2] is: iv, IV 30 mg/kg, 2 h, read-out: Concentration in Plasma, Mouse 1.
Where [3] appears, read: iv, IV 30 mg/kg, 2 h, read-out: Concentration in Plasma, Mouse 2.
[4] abbreviates: iv, IV 30 mg/kg, 2 h, read-out: Concentration in Plasma, Mouse 3.
[5] abbreviates: iv, IV 30 mg/kg, 4 h, read-out: Concentration in Plasma, Mouse 1.
Where [6] appears, read: iv, IV 30 mg/kg, 4 h, read-out: Concentration in Plasma, Mouse 3.
Where [7] appears, read: iv, IV 30 mg/kg, 7 h, n=3 (outliers excluded), read-out: Concentration in Plasma, Mean.
Where [8] appears, read: iv, IV 30 mg/kg, 7 h, read-out: Concentration in Plasma, Mouse 1.
Setting [9] is: iv, IV 30 mg/kg, 7 h, read-out: Concentration in Plasma, Mouse 2.
Where [10] appears, read: iv, IV 30 mg/kg, 7 h, read-out: Concentration in Plasma, Mouse 3.
The mark [11] stands for this setting: po, PO 30 mg/kg, 2 h, n=3 (outliers excluded), read-out: Concentration in Plasma, Mean.
The mark [12] stands for this setting: po, PO 30 mg/kg, 2 h, read-out: Concentration in Plasma, Mouse 3.
[13] abbreviates: po, PO 30 mg/kg, 4 h, n=3 (outliers excluded), read-out: Concentration in Plasma, Mean.
Setting [14] is: po, PO 30 mg/kg, 4 h, read-out: Concentration in Plasma, Mouse 1.
[15] abbreviates: po, PO 30 mg/kg, 4 h, read-out: Concentration in Plasma, Mouse 3.
The mark [16] stands for this setting: po, PO 30 mg/kg, 7 h, n=3 (outliers excluded), read-out: Concentration in Plasma, Mean.
Where [17] appears, read: po, PO 30 mg/kg, 7 h, read-out: Concentration in Plasma, Mouse 1.
The mark [18] stands for this setting: po, PO 30 mg/kg, 7 h, read-out: Concentration in Plasma, Mouse 2.

Regarding `COc1cccc(CNc2ccc(S(=O)(=O)Nc3cccc(C(F)(F)F)c3)cc2)c1O` [Compound A2], the “Concentration in Plasma, Mouse 2” value is “*1369.6 ng/ml” (IV 30 mg/kg, 4 h) and “*6042.8 ng/ml” (PO 30 mg/kg, 2 h). The “Concentration in Plasma, Mouse 3” value (PO 30 mg/kg, 7 h) was “*301.8 ng/ml”. The concentration at 2 h is, setting by setting: under setting [1], 199 ng/mL; under setting [2], 144 ng/mL; under setting [3], 333 ng/mL; under setting [4], 118 ng/mL; under setting [11], 145 ng/mL; (po, PO 30 mg/kg, 2 h, read-out: Concentration in Plasma, Mouse 1) 59 ng/mL. In addition, the concentration at 2 h under setting [12] turned out to be 230 ng/mL. Also, the concentration at 4 h (iv, IV 30 mg/kg, 4 h, n=3 (outliers excluded), read-out: Concentration in Plasma, Mean) was determined as 112 ng/mL; the concentration at 4 h under setting [5] is 127 ng/mL; the concentration at 4 h under setting [6] was 96 ng/mL; the concentration at 4 h under setting [13] was 74.3 ng/mL; the concentration at 4 h under setting [14] turned out to be 38.9 ng/mL; the concentration at 4 h (po, PO 30 mg/kg, 4 h, read-out: Concentration in Plasma, Mouse 2) came to 103 ng/mL. In addition, under setting [15], the concentration at 4 h was 81.2 ng/mL. Besides, the concentration at 7 h runs as follows: under setting [7], 31 ng/mL; under setting [8], 49.3 ng/mL; under setting [9], 16.4 ng/mL; under setting [10], 27.4 ng/mL; under setting [16], 91.3 ng/mL; under setting [17], 106 ng/mL. Under setting [18], the concentration at 7 h came out at 76.8 ng/mL.
As for `COc1cccc(CNc2ccc(S(=O)(=O)Nc3cccc(C4(C(F)(F)F)CC4)c3)cc2)c1O` [Compound A4, 4-((2-hydroxy-3-methoxybenzyl)amino)-N-(3-(1-(trifluoromethyl)cyclopropyl)phenyl)benzenesulfonamide], the “Concentration in Plasma, Mouse 1” value (PO 30 mg/kg, 2 h) is reported as “*20.2 ng/ml”. In addition, the “Concentration in Plasma, Mouse 2” value (PO 30 mg/kg, 4 h) is reported as “*127.5 ng/ml”. The concentration at 2 h runs as follows: under setting [1], 112 ng/mL; under setting [2], 94.2 ng/mL; under setting [3], 172 ng/mL; under setting [4], 71 ng/mL; under setting [11], 5260 ng/mL; (po, PO 30 mg/kg, 2 h, read-out: Concentration in Plasma, Mouse 2) 642 ng/mL. For the same compound, under setting [12], the concentration at 2 h was 410 ng/mL. Moreover, the concentration at 4 h under setting [5] came out at 20.8 ng/mL; the concentration at 4 h (iv, IV 30 mg/kg, 4 h, read-out: Concentration in Plasma, Mouse 2) was 28.8 ng/mL; the concentration at 4 h under setting [6] was determined as 20.6 ng/mL; the concentration at 4 h under setting [13] turned out to be 33.6 ng/mL; the concentration at 4 h under setting [14] worked out at 33.4 ng/mL; the concentration at 4 h under setting [15] is 33.8 ng/mL. For the same compound, the concentration at 7 h runs as follows: under setting [7], 10.2 ng/mL; under setting [8], 24.1 ng/mL; under setting [9], 5.6 ng/mL; under setting [10], 0.8 ng/mL; under setting [16], 29 ng/mL; under setting [17], 33.2 ng/mL. Also, the concentration at 7 h came to 22.9 ng/mL under setting [18] and 30.9 ng/mL (po, PO 30 mg/kg, 7 h, read-out: Concentration in Plasma, Mouse 3).
